Measurements from the supplement of paper PMC4858399.
Where a name gives a salt, the structure may show the parent alone.

Key:
[1] = system: Caenorhabditis elegans N2; test: lowest effective concentration for larval growth inhibition (size below effect threshold); higher = less potent; settings: exposure time 48 h
Outline: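 C. elegans N2 L1 larvae (50 per 96-well) were grown 48 h at 20°C in K-medium with killed bacteria, 1% DMSO and 0.5, 1, 5, 10, 50, 100 or 200 µM chemical. The Biosort measured per-worm extinction as size, and these were log-transformed into well means. The lowest effective concentration is the first dose where the plate-adjusted mean size drops under the 5.665 threshold and stays under it at higher doses.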

[2] = system: Caenorhabditis elegans N2; test: mean nematode size ln(EXT) after 48 h, plate-adjusted (DMSO control set to 6) (ln(EXT), control-adjusted); higher = larger nematodes / less growth inhibition; settings: exposure time 48 h
Outline: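 Synchronised C. elegans N2 L1 larvae (50 per well, 4–6 wells per treatment) were grown for 48 h at 20°C in K-medium with killed OP50, 1% DMSO and 0.5–200 µM chemical. The Biosort measured each worm's extinction, and debris was removed by a growth model. Values were natural-logged and averaged per well. Mean size was then plate-adjusted by subtracting the vehicle control mean and adding 6.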

| SMILES | lowest effective concentration [1] | mean nematode size ln(EXT) (ln) ([2]; 0.5 µM) | mean nematode size ln(EXT) (ln) ([2]; 1 µM) | mean nematode size ln(EXT) (ln) ([2]; 5 µM) | mean nematode size ln(EXT) (ln) ([2]; 10 µM) | mean nematode size ln(EXT) (ln) ([2]; 50 µM) | mean nematode size ln(EXT) (ln) ([2]; 100 µM) | mean nematode size ln(EXT) (ln) ([2]; 200 µM) |
| --- | --- | --- | --- | --- | --- | --- | --- | --- |
| OB(O)O [Boric acid] | > 200 µM | 6.06 | 6.07 | 6.08 | 6.13 | 6.14 | 6.18 | 5.95 |
| CCN(Cc1cccc(S(=O)(=O)O)c1)c1ccc(C(=C2C=CC(=[N+](CC)Cc3cccc(S(=O)(=O)O)c3)C=C2)c2ccccc2S(=O)(=O)[O-])cc1 [FD & C Blue no. 1] | > 200 µM | 5.85 | 5.87 | 5.91 | 5.88 | 5.89 | 5.92 | 5.89 |
| CC(=O)Nc1ccc(O)cc1 [Acetaminophen] | > 200 µM | 6.04 | 6.05 | 6.04 | 6.12 | 6.09 | 6.04 | 5.74 |
| COc1ccccc1N [2-Anisidine] | > 200 µM | 5.76 | 5.78 | 5.84 | 5.82 | 5.83 | 5.81 | 5.78 |
| Cc1ccc(N)cc1O [5-Amino-o-cresol] | > 200 µM | 5.44 | 5.57 | 5.55 | 5.6 | 5.74 | 5.75 | 5.8 |
| CC(Cl)(Cl)C(=O)O [Dalapon] | > 200 µM | 5.78 | 6.06 | 6.05 | 6.04 | 5.95 | 5.93 | 5.79 |
| NNC(=O)c1ccncc1 [Isoniazid] | 200 µM | 5.78 | 5.82 | 5.77 | 5.64 | 5.82 | 5.88 | 5.65 |
| COCCO [Methyl cellusolve] | > 200 µM | 5.86 | 5.94 | 6.08 | 6.07 | 5.99 | 6.03 | 6.06 |
| CCCCCC(=O)O [Hexanoic acid] | > 200 µM | 5.99 | 5.88 | 5.83 | 5.84 | 5.83 | 5.87 | 5.79 |
| O=P1(N(CCCl)CCCl)NCCCO1 (stereo unspecified) [Cytoxan hydrate] | > 200 µM | 5.87 | 5.9 | 5.89 | 5.8 | 5.92 | 5.9 | 5.93 |
| C[C@]12C=CC(=O)C=C1CC[C@H]1[C@@H]3C[C@@H](O)[C@](O)(C(=O)CO)[C@@]3(C)C[C@H](O)[C@@]12F [Triamcinolone] | > 200 µM | 5.9 | 5.86 | 5.87 | 5.87 | 5.92 | 5.86 | 5.79 |
| O=C(OCCOCCOC(=O)c1ccccc1)c1ccccc1 [Di(ethylene glycol) dibenzoate] | 200 µM | 5.89 | 5.82 | 5.77 | 5.76 | 5.71 | 5.79 | 5.66 |
| OC(CCl)CCl [1,3-Dichloro-2-propanol] | > 200 µM | 5.88 | 5.83 | 5.8 | 5.82 | 5.8 | 5.48 | 5.88 |
| Cc1cccc([N+](=O)[O-])c1 [3-Nitrotoluene] | > 200 µM | 5.78 | 5.89 | 5.82 | 5.77 | 5.93 | 5.88 | 5.85 |
| COC(=O)CC(=O)OC [Dimethyl malonate] | > 200 µM | 5.85 | 5.89 | 5.88 | 6.13 | 5.87 | 5.89 | 5.75 |
| CCc1ccc(CCOc2ccc(CC3SC(=O)NC3=O)cc2)nc1 (stereo unspecified) [Pioglitazone HCl] | > 200 µM | 5.98 | 5.94 | 5.95 | 5.96 | 5.91 | 5.87 | 5.76 |
| C[C@@]1(c2ccc(Oc3ccccc3)cc2)OC(=O)N(Nc2ccccc2)C1=O (racemic) [Famoxadone] | > 200 µM | 5.8 | 5.77 | 5.7 | 5.8 | 5.75 | 5.83 | 5.67 |
| CC(=O)OCC(COC(C)=O)OC(C)=O [Triacetin] | > 200 µM | 5.85 | 5.99 | 5.89 | 5.85 | 5.97 | 5.78 | 5.73 |
| Cc1ccccc1N [2-Methylbenzenamine] | > 200 µM | 5.79 | 5.87 | 5.76 | 5.89 | 5.91 | 5.73 | 5.89 |
| C1CC2OC2CC1C1CO1 (mixture of isomers) [Vinylcyclohexene dioxide, mixture of isomers] | > 200 µM | 5.91 | 5.97 | 5.93 | 5.74 | 5.93 | 5.91 | 5.7 |
| CCOCCO [2-Ethoxyethanol] | > 200 µM | 5.85 | 5.79 | 5.75 | 5.64 | 5.72 | 5.89 | 5.79 |
| CSC(C)(C)/C=N/O [Aldicarb oxime] | > 200 µM | 5.88 | 5.88 | 5.75 | 5.85 | 5.94 | 5.94 | 5.77 |
| Cc1ccc([N+](=O)[O-])cc1N [2-Methyl-5-nitroaniline] | 50 µM | 5.93 | 5.42 | 5.81 | 5.9 | 5.13 | 5.58 | 5.66 |
| CC1=C(/C=C/C(C)=C/C=C/C(C)=C/CO)C(C)(C)CCC1 [Retinol] | > 200 µM | 5.92 | 5.89 | 5.91 | 5.75 | 5.9 | 5.84 | 5.68 |
| N[C@@H](Cc1c[nH]c2ccccc12)C(=O)O [L-Tryptophan] | > 200 µM | 5.91 | 5.87 | 5.89 | 5.86 | 5.85 | 5.96 | 5.7 |
| CC(Oc1cccc(Cl)c1)C(=O)O (stereo unspecified) [Cloprop] | > 200 µM | 5.97 | 5.98 | 6.03 | 6.09 | 6.01 | 5.99 | 5.69 |
| CC1(C)CON(Cc2ccccc2Cl)C1=O [Clomazone] | > 200 µM | 6.09 | 6.23 | 6.29 | 6.06 | 6.2 | 6.07 | 5.68 |
